Data taken from patent publication US20070275877A1, “Methods for Treating or Ameliorating Ghrelin-Associated Diseases and Disorders” (AMYLIN PHARMACEUTICALS, INC., priority 2003, published 2007).
One block for each compound: values may come before it. No end group written: not given here.

Experiments:
ghrelin levels = experiment: Crossover study of pramlintide in humans: ghrelin levels (Example 6); type: in vivo, human; settings: single SC dose of pramlintide 30 μg, n=15, FIG. 6
Experimental: FIG. 6 depicts a graph of the effect of an amylin analog on ghrelin levels in humans.
(§1) Ghrelin levels were measured in a single-center, randomized, double-blind, placebo-controlled, two-period, crossover study was designed to examine the acute effects of pramlintide, an amylin analog, in humans. The study consisted of two treatment periods (Period 1/Visit 2 and Period 2/Visit 3) with at least 72 h between each treatment period. After successful completion of all Screening procedures (including informed consent), subjects (n=15) were randomly assigned to one of two treatment sequences (pramlintide: placebo or placebo: pramlintide). Subjects were instructed to fast from 2200 h on the evening before both treatment periods until the start of the test (the next morning).
On the mornings of Period 1 and Period 2, an intravenous cannula was placed in an antecubital vein for blood sampling (t=−1 h). Vital signs and weight were measured at this time. During each treatment period, subjects received study medication (pramlintide or placebo) immediately followed by a standardized, liquid preload meal, which was to be consumed within 3 min. Subjects received a single SC dose of pramlintide 30 μg or placebo. […] The buffet meal included a selection of carbohydrate-rich foods in quantities in excess of what subjects were expected to eat. […]

[1] = Crossover study of pramlintide in humans: ad libitum buffet meal intake (Example 6); type: in vivo, human; settings: single SC dose of pramlintide 30 μg
Experimental: as §1
On the mornings of Period 1 and Period 2, an intravenous cannula was placed in an antecubital vein for blood sampling (t=−1 h). Vital signs and weight were measured at this time. During each treatment period, subjects received study medication (pramlintide or placebo) immediately followed by a standardized, liquid preload meal, which was to be consumed within 3 min. Subjects received a single SC dose of pramlintide 30 μg or placebo. One hour later (t=1 h), subjects consumed an ad libitum buffet meal, which was offered for 45 min. The buffet meal included a selection of carbohydrate-rich foods in quantities in excess of what subjects were expected to eat. Venous blood samples were collected over a 5.5-h period (t=−0.5 h to 5 h) for the measurement of postprandial metabolic and hormonal responses. Procedures for Period 2 were exactly as those described for Period 1, only the alternate treatment was given.

active ghrelin [2] = experiment: Amylin receptor antagonist i.v., plasma ghrelin in fed rats (Example 4, FIG. 4B); type: in vivo; settings: AC187 3 mg/rat i.v.; five minutes after administration; fed animals; saline controls 1.4±6.4% decrease, P<0.03
Experimental: (§2) FIGS. 4A and 4B depict graphs of the effects of an amylin receptor antagonist on ghrelin levels in an animal model.
(§3) The following methods apply to Examples 1-4 as indicated. Male Harlan Sprague Dawley® (HSD) rats were housed at 22.8±0.8° C. in a 12:12 hour light:dark cycle. All experiments were performed in the light cycle. Animals were fasted for approximately 20 hours before experimentation (examples 1, 2 and 3) or fed ad libidum (Example 4). All animals were given free access to water until the start of the experiment. The animals' tails were anesthetized with 20% benzocaine (Hurricaine, Beutlich Pharmaceutical, Waukegan, Ill.), and blood samples were collected from the tail vein. Total and active ghrelin concentrations were measured using Linco RIA kits GHRA-89HK and GHRA-88HK, respectively.
In a second, related experiment, baseline blood samples for ghrelin to be assayed were taken at t=0 minutes. AC187 (lot#AR2237-18B, Amylin Pharmaceuticals, Inc.), at a dose of 3 mg/rat in 300 μl of saline or saline vehicle alone, was given by intravenous injection in the tail vein at t=0. Plasma samples were collected at time 0, 5, and 15 minutes. Five minutes after administration of AC187 in fed animals, active ghrelin concentrations increased by 16.3±4.0%, as compared to a 1.4±6.4% decrease in saline controls (P<0.03), see FIG. 4B.

active ghrelin [3] = experiment: Amylin receptor antagonist s.c., plasma ghrelin in non-fasted rats given pentagastrin (Example 4, FIG. 4A); type: in vivo; settings: AC187 3 mg/rat s.c. at -5 min, pentagastrin 125 μg/kg s.c. at 0 min
Experimental: as §2, §3
These experiments were conducted to determine whether the amylin receptor antagonist AC187 blocked an effect of endogenous amylin on plasma ghrelin levels in non-fasted rats. Baseline blood samples for ghrelin to be assayed were taken at t=−10 min. AC187 (lot #AR741-72, Amylin Pharmaceuticals), at a dose of 3 mg/rat in 300 μl of saline, or saline vehicle alone, was given by subcutaneous injection (n=6, 8 respectively) at t=−5 min. Animals additionally received a subcutaneous injection of pentagastrin (Sigma, Lot#050K1525) in the amount of 125 μg/kg body mass at time=0 min. […]

[4] = treated test animals; e.g., provoking marked hyperlactemia followed by hyperglycemia; cited from earlier work
[5] = cited from earlier work
active ghrelin [6] = experiment: Amylin effect on ghrelin in area postrema-lesioned and sham operated rats (Example 5); type: in vivo, rat
Experimental: FIG. 5 depicts a graph of the effect of the area postrema on amylin's effect on ghrelin secretion.
In this experiment, fasted, Sprague-Dawley® rats with localized lesions of the area postrema (AP) made by vacuum aspiration 3 weeks before the experiments and sham operated rats (sham) were injected s.c. with amylin (30 μg/kg) or saline (n=4, 4 respectively). At t=0, 10, 20, 30, 60, 90 and 120 minutes after the s.c. injection, total ghrelin concentrations were measured and reports as % of the baseline.
Twenty minutes after a 30 μg/kg subcutaneous amylin injection in Sham rats, active ghrelin concentration decreased by 31.3±3.3%, while active ghrelin concentrations in saline controls increased by 23.5±22.1% (P<0.05).

total plasma ghrelin [7] = experiment: Effect of rat amylin on ghrelin levels with and without pentagastrin in fasted rats (Example 2); type: in vivo
Experimental: FIGS. 2A and 2B depict graphs of the effect of rat amylin on ghrelin levels in an animal model in the presence and absence of pentagastrin.
as §3
These experiments were conducted to examine whether exogenous amylin inhibits ghrelin secretion independent of pentagastrin stimulation. Fasted rats were given either a subcutaneous injection of saline or of 30 μg/kg rat amylin (FIG. 2A) or a subcutaneous injection of either saline or 125 μg/kg pentagastrin (Sigma, Lot#050K1525) (FIG. 2B) at time=0 min. […]

total plasma ghrelin [8] = experiment: Dose-response effects of amylin on ghrelin levels in fasted rats (Example 3); type: in vivo, rat
Experimental: FIGS. 3A and 3B depict graphs of dose-response effects of rat amylin on ghrelin levels in an animal model.
as §3
These experiments were conducted to identify dose-response effects of amylin on ghrelin levels in fasted rats. Rat amylin (lot #AR2081-42A, Amylin Pharmaceuticals) in 100 μl saline was given by subcutaneous injections at doses: 0, 1, 10, 30 and 100 μg/kg (n=5, 4, 5, 5, 4 respectively) at time=0 min. Blood plasma samples were collected at time=0, 10, 20, 30, 60, 90 and 120 min after amylin injection. […] Pairwise statistical analyses were performed using Student's t-test (Instat v2.0, GraphPad Software Inc, San Diego). Results are reported as mean±standard error of the mean, and P<0.05 is used as the level of significance.

[9] = test system: active (acylated) ghrelin; experiment: Effect of rat amylin on ghrelin levels in pentagastrin-treated fasted rats (Example 1); type: in vivo; settings: 10 μg rat amylin s.c. 20 min after 125 μg/kg pentagastrin s.c.
Experimental: FIG. 1 depicts a graph of the effect of exogenously administered rat amylin on endogenous ghrelin levels in an animal model. 125 μg pentagastrin (PG) was administered at t=0 and 10 μg amylin was administered at t=20 (dotted lines).
as §3
HSD rats were subjected to periodic blood sampling from the topically anesthetized tail and ghrelin levels were assayed. At t=0, rats (n=6) were injected s.c. with 125 μg/kg pentagastrin (Sigma) to stimulate gastric acid secretion (PG=0 min in FIG. 1), and 20 min later were injected subcutaneously (s.c.) with 10 μg rat amylin. The blood samples were analyzed for total and active (acylated) ghrelin (Linco).

Compound: CC[C@H](C)[C@H](NC(=O)[C@@H]1CCCN1C(=O)CNC(=O)[C@H](Cc1ccccc1)NC(=O)[C@H](CC(N)=O)NC(=O)[C@H](CC(N)=O)NC(=O)[C@H](CO)NC(=O)[C@H](CO)NC(=O)[C@H](Cc1c[nH]cn1)NC(=O)[C@@H](NC(=O)[C@H](CC(C)C)NC(=O)[C@H](Cc1ccccc1)NC(=O)[C@H](CC(N)=O)NC(=O)[C@H](C)NC(=O)[C@H](CC(C)C)NC(=O)[C@H](CCCNC(=N)N)NC(=O)[C@H](CCC(N)=O)NC(=O)[C@@H](NC(=O)[C@H](C)NC(=O)[C@@H]1CSSC[C@H](NC(=O)[C@@H](N)CCCCN)C(=O)N[C@@H](CC(N)=O)C(=O)N[C@@H]([C@@H](C)O)C(=O)N[C@@H](C)C(=O)N[C@@H]([C@@H](C)O)C(=O)N1)[C@@H](C)O)C(C)C)C(=O)N[C@@H](CC(C)C)C(=O)N1CCC[C@H]1C(=O)N1CCC[C@H]1C(=O)N[C@H](C(=O)N[C@@H](CC(N)=O)C(=O)N[C@H](C(=O)NCC(=O)N[C@@H](CO)C(=O)N[C@@H](CC(N)=O)C(=O)N[C@H](C(=O)N[C@@H](Cc1ccc(O)cc1)C(N)=O)[C@@H](C)O)C(C)C)[C@@H](C)O [pramlintide, ^25,28,29Pro-h-amylin]
ghrelin levels following an ad libitum buffet meal compared to placebo (ghrelin levels): further reduced
duration of the meal time compared to placebo [1]: reduced
fat, carbohydrate, and protein intake compared to placebo [1]: proportionate reductions
total caloric intake of the buffet meal compared to placebo [1]: reduced

increase of active ghrelin concentrations (active ghrelin [2]): 16.3±4.0%
Compound: Ac ^30Asn, ^32Tyr-sCT[8-32] [AC187]
active ghrelin concentrations compared to saline injected controls (active ghrelin [3]): higher

Compound: ^18Arg^25,28Pro-h-amylin (KCNTATCATQRLANFLVRSSNNFGPILPSTNVGSNTY)
amylin activity in vivo [4]: show amylin activity in vivo
solubility characteristics compared to human amylin [5]: more desirable

Compound: ^25Pro^26Val^28,29 Pro-h-amylin (KCNTATCATQRLANFLVHSSNNFGPVLPPTNVGSNTY)
solubility characteristics compared to human amylin [5]: more desirable

Compound: ^28Pro-h-amylin (KCNTATCATQRLANFLVHSSNNFGAILPSTNVGSNTY)
amylin activity in vivo [4]: show amylin activity in vivo

Compound: des-^1Lys-h-amylin (CNTATCATQRLANFLVHSSNNFGAILSSTNVGSNTY; ends and bridges not checked; cysteine pairing not given here; UniProt P10997 35-70, looked up, fragment)
amylin activity in vivo [4]: show amylin activity in vivo

Compound: des-^1Lys^18Arg^25,28Pro-h-amylin
amylin activity in vivo [4]: show amylin activity in vivo

Compound: rat amylin (KCNTATCATQRLANFLVRSSNNLGPVLPPTNVGSNTY; not fully specified; ends and bridges not checked; UniProt P12969 38-74, looked up) [rat amylin peptide hormone (AC0128, Amylin Pharmaceuticals)]
difference in ghrelin concentration, amylin versus saline (active ghrelin [6]; AP-lesioned rats, 30 μg/kg s.c. amylin, P=0.24): no significant difference
increase of ghrelin concentration (active ghrelin [6]; AP-lesioned rats, 30 μg/kg s.c. amylin, saline +49.6±21.0%, P=0.24): 13.7±17.6%
decrease of active ghrelin concentration (active ghrelin [6]; Sham rats, twenty minutes after 30 μg/kg s.c. amylin, saline controls increased by 23.5±22.1%, P<0.05): 31.3±3.3%
plasma ghrelin compared to the control, amylin alone (total plasma ghrelin [7]; 30 μg/kg rat amylin s.c. without pentagastrin): reduced
total plasma ghrelin compared to the saline control (total plasma ghrelin [7]; 30 μg/kg rat amylin s.c., FIGS. 2A and 2B): reduction in total plasma ghrelin
inhibition of ghrelin at lowest dose (total plasma ghrelin [8]; amylin dose of 1 μg/kg s.c.): trend to inhibit ghrelin
reduction of ghrelin, significance (total plasma ghrelin [8]; amylin doses of 10 μg/kg and above s.c., P<0.05 level): statistically significant
total plasma ghrelin concentrations, dose-response (total plasma ghrelin [8]; rat amylin s.c. 0, 1, 10, 30 and 100 μg/kg, fasted rats, FIG. 3A): dose-dependent reduction
time of ghrelin concentration nadirs after amylin injection (total plasma ghrelin [8]; rat amylin s.c. 1-100 μg/kg, fasted rats): 60 to 90 min
time within which active ghrelin was reduced by 50% [9]: ≤ 1 h
reduction of active ghrelin ([9]; FIG. 1): 50%
